Common to all, as to format: cell-based
Data set [1] deals with normal human epidermal keratinocytes (NHEK). As to the kind of experiment: anti-inflammatory effect: IL-6 secreted by Poly(I:C)-stimulated keratinocytes (ELISA). The conditions noted are these: NHEK stimulated with Poly(I:C) 1 µg/mL + Bafilomycin 100 nM. As to the method:
(§1) The anti-inflammatory properties of S. marinoï polar algae extract were evaluated on normal human epidermal keratinocytes (NHEK) These NHEK human epidermal keratinocytes were seeded in K-SFM medium supplemented with 0.25 ng/mL of EGF (Epidermal Growth Factor), 25 µg/mL of pituitary extract and 25 µg/mL of Gentamycin in 96-well plates to then be incubated at 37° C. under an atmosphere containing 5% CO2. After at least one day of culturing, the NHEK cells are pre-incubated for 24 hours in the presence or absence of different concentrations of the S. marinoï polar extract. As a positive control of anti-inflammatory activity, NHEK cells were also pre-incubated in the presence of bafilomycin (100 nM). After this pre-incubation, the treatments were renewed and the NHEK cells are then incubated for 24 hours in the presence of poly (I:C) for inducing inflammation. A control condition without inflammation inducer (unstimulated control) was performed in parallel. After incubation, the culture supernatant was collected to determine the level of keratinocyte inflammation by ELISA by measuring the amounts of IL-6 secreted.

The test system is the same in data set [2]. As to the kind of experiment: cell viability (WST-8) of Poly(I:C)-stimulated keratinocytes. The conditions noted are these: NHEK stimulated with Poly(I:C) 1 µg/mL + Bafilomycin 100 nM. As to the method:
The anti-inflammatory properties of S. marinoï polar algae extract were evaluated on normal human epidermal keratinocytes (NHEK)
as §1, with “These” for “The anti-inflammatory properties of S. marinoï polar algae extract were evaluated on normal human epidermal keratinocytes (NHEK) These”, “parallel.” for “parallel. After incubation, the culture supernatant was collected to determine the level of keratinocyte inflammation by ELISA by measuring the amounts of IL-6 secreted.”

Data set [3] has as its system human sebocytes of the SEBO662AR line. Briefly: anti-lipogenic effect: total lipids (BODIPY probe) in stimulated sebocytes. The following applies: cells stimulated with lipogenic mixture containing androgens + Cerulenin 10 µM. As to the method: The effect of S. marinoï polar algae extract on the overproduction of lipids was studied on human sebocytes of the SEBO662AR line (BIOALTERNATIVES line) stimulated by lipogenic and androgenic factors.
SEBO662AR human sebocytes were first cultured at 37° C. in the presence of 5% CO2 and antibiotics in a dedicated culture medium. After at least one day of culturing, lipogenesis is induced in the SEBO662AR cells by their incubation in the presence of lipogenic and androgenic factors. The cells are then incubated in the presence or in the absence of 3 distinct concentrations of the polar extract. As a positive control of lipogenesis inhibitory activity, the SEBO662AR cells are incubated in the presence of cerulenin. At the end of the incubation period, the total lipids are fluorescently labelled, and the inhibition of lipogenesis is determined for each condition.

Molecules are shown by their SMILES.

With `CO/C1=C\C(C)=C\[C@@H](C)[C@@H](O)[C@@H](C)C/C(C)=C/C=C/[C@H](OC)[C@@H]([C@@H](C)[C@@H](O)[C@H](C)[C@@]2(O)C[C@@H](O)[C@H](C)[C@@H](C(C)C)O2)OC1=O` [Bafilomycin, bafilomycin], the IL6 in data set [1] is given as 13 pg/mL. Besides, the “Cell viability (WST-8)” value in data set [2] came to 100.
As for `C/C=C/C/C=C/CCC(=O)[C@H]1O[C@H]1C(N)=O` [Cerulenin, cerulenin], in data set [3], the “Lipids (BODIPY® probe) Fluorescence intensity /Number of nuclei” value was 188 853^∗∗ and the Stimulation % is 63%.

The values above are taken from patent publication US20230241142A1, “USE OF A POLAR EXTRACT OF SKELETONEMA IN PHOTODYNAMIC THERAPY” (IFREMER, priority 2020, published 2023).
